Measured values published in patent US10738028B2, “Spiro three-membered ring, spiro five-membered ring peptide deformylase inhibitor and use thereof in antibacteria and anti-tumor” (priority 2016, dated 2020).

Key:
Assay type in all cases: cell-based
[1] = system: methicillin-resistant Staphylococcus aureus (MRSA); assay: MIC, two-fold agar dilution (CLSI), clinical isolates
How it was run: (§1)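 CLSI two-fold agar dilution; MIC of test samples read per tested strain.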

[2] = system: Enterococcus faecium (EFM); assay: as above
How it was run: as §1

[3] = system: Moraxella catarrhalis (BCA); assay: as above
How it was run: as §1

[4] = system: Enterococcus faecalis (EFA); assay: as above
How it was run: as §1

[5] = system: Escherichia coli (including ESBLs, non-ESBLs); assay: as above
How it was run: as §1

[6] = system: methicillin-resistant Staphylococcus epidermidis (MRSE); assay: as above
How it was run: as §1

[7] = system: Streptococcus pneoumoniae (SPN); assay: as above
How it was run: as §1

[8] = system: methicillin-sensitive Staphylococcus epidermidis (MSSE); assay: as above
How it was run: as §1

[9] = system: methicillin-sensitive Staphylococcus aureus (MSSA); assay: as above
How it was run: as §1

[10] = system: A549 lung cancer cell line; assay: CCK-8 proliferation inhibition; conditions: concentration of 30 μM
How it was run: (§2)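 Plating at 2000 cells/well, then incubation overnight at 37° C. Next, a range of compound concentrations for 72 hours (control 1‰ DMSO). Finally, medium decanted and CCK-8 diluted 1:10 added.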

[11] = system: BEL-7402 liver cancer cell line; assay: CCK-8 proliferation inhibition; conditions: concentration of 30 μM
How it was run: as §2

[12] = system: MGC-803 gastric cancer cell line; assay: CCK-8 proliferation inhibition; conditions: Homo sapiens, MGC-803, 72 h, concentration of 30 μM
How it was run: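 Proliferation was measured with 1:10 diluted CCK-8 after a 72-hour incubation with the inhibitors at various final concentrations, using 1‰ DMSO as the control. Cells were plated at 2000 per well. Culture media contained 10% newborn bovine serum: 1640 for Jurkat and MGC-803, F12 for PC3, DMEM high glucose for MCF-7.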

[13] = system: HCT-116 colorectal cancer cell line; assay: CCK-8 proliferation inhibition; conditions: concentration of 30 μM, 72 hours, CCK-8
How it was run: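 Cells were plated overnight at 2000 cells/well, then compound in culture medium was added at a range of final concentrations. After 72 hours in a CO2 incubator, medium was replaced with 1:10 CCK-8 solution for the read-out.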

O=C(C[C@@H](CC1CCCC1)C(=O)N1CC2(CC2)C[C@H]1C(=O)Nc1ccno1)NO [Example 70, (S)-5-((R)-2-(cyclopentylmethyl)-4-(hydroxyamino)-4-oxobutyl)-N-(isoxazol-5-yl)-5-spiro[2.4]heptane-6-carboxamide]
Anti-bacterial activity (MIC), strain MRSA 15-1 ([1]; clinical isolate MRSA 15-1): 0.5 µg/mL | Anti-bacterial activity (MIC), strain MRSA 15-2 ([1]; clinical isolate MRSA 15-2): 1 µg/mL | Anti-bacterial activity (MIC), strain MRSA 15-3 ([1]; clinical isolate MRSA 15-3): 0.5 µg/mL | Anti-bacterial activity (MIC), strain MRSA 15-4 ([1]; clinical isolate MRSA 15-4): 1 µg/mL | Anti-bacterial activity (MIC) ([2]; strain EFM 15-1): 32 µg/mL | Anti-bacterial activity (MIC) ([2]; strain EFM 15-2): 32 µg/mL | Anti-bacterial activity (MIC) ([2]; strain EFM 15-3): 32 µg/mL | Anti-bacterial activity (MIC) ([2]; strain EFM 15-4): 1 µg/mL | Anti-bacterial activity (MIC) ([2]; strain EFM 15-5): 0.2 µg/mL | Anti-bacterial activity (MIC) ([2]; strain EFM 15-6): 2 µg/mL | Anti-bacterial activity (MIC) ([3]; strain BCA 14-1): 1 µg/mL | Anti-bacterial activity (MIC) ([3]; strain BCA 14-4): 2 µg/mL | Anti-bacterial activity (MIC) ([3]; strain BCA 14-5): 2 µg/mL | Anti-bacterial activity (MIC) ([3]; strain BCA 14-6): 2 µg/mL | Anti-bacterial activity (MIC) ([3]; strain BCA 14-7): 4 µg/mL | Anti-bacterial activity (MIC) ([3]; strain BCA 14-8): 1 µg/mL | Anti-bacterial activity (MIC) ([3]; strain BCA 14-10): 1 µg/mL | Anti-bacterial activity (MIC) ([4]; strain EFA 15-1): 32 µg/mL | Anti-bacterial activity (MIC) ([4]; strain EFA 15-2): 32 µg/mL | Anti-bacterial activity (MIC) ([4]; strain EFA 15-3): 32 µg/mL | Anti-bacterial activity (MIC) ([4]; strain EFA 15-4): 32 µg/mL | Anti-bacterial activity (MIC) ([4]; strain EFA 15-5): 32 µg/mL | Anti-bacterial activity (MIC) ([4]; strain EFA 15-6): 32 µg/mL | Anti-bacterial activity (MIC) ([4]; strain EFA 15-9): 1 µg/mL | Anti-bacterial activity (MIC), strain ECO+ 15-1 ([5]; clinical isolate ECO+ 15-1): 16 µg/mL | Anti-bacterial activity (MIC), strain ECO+ 15-2 ([5]; clinical isolate ECO+ 15-2): 32 µg/mL | Anti-bacterial activity (MIC), strain ECO+ 15-3 ([5]; clinical isolate ECO+ 15-3): 32 µg/mL | Anti-bacterial activity (MIC), strain ECO+ 15-4 ([5]; clinical isolate ECO+ 15-4): 16 µg/mL | Anti-bacterial activity (MIC), strain ECO− 15-1 ([5]; clinical isolate ECO− 15-1): 16 µg/mL | Anti-bacterial activity (MIC), strain ECO− 15-2 ([5]; clinical isolate ECO− 15-2): 32 µg/mL | Anti-bacterial activity (MIC), strain ECO− 15-3 ([5]; clinical isolate ECO− 15-3): 32 µg/mL | Anti-bacterial activity (MIC), strain ECO− 15-4 ([5]; clinical isolate ECO− 15-4): 16 µg/mL | Anti-bacterial activity (MIC), strain MRSE 15-1 ([6]; clinical isolate MRSE 15-1): 0.5 µg/mL | Anti-bacterial activity (MIC), strain MRSE 15-2 ([6]; clinical isolate MRSE 15-2): 2 µg/mL | Anti-bacterial activity (MIC), strain MRSE 15-3 ([6]; clinical isolate MRSE 15-3): 2 µg/mL | Anti-bacterial activity (MIC), strain MRSE 15-7 ([6]; clinical isolate MRSE 15-7): 2 µg/mL | Anti-bacterial activity (MIC) ([7]; strain SPN 16-2): 0.5 µg/mL | Anti-bacterial activity (MIC) ([7]; strain SPN 16-4): 0.25 µg/mL | Anti-bacterial activity (MIC), strain MSSE 15-3 ([8]; clinical isolate MSSE 15-3): 0.5 µg/mL | Anti-bacterial activity (MIC), strain MSSE 15-4 ([8]; clinical isolate MSSE 15-4): 1 µg/mL | Anti-bacterial activity (MIC), strain MSSE 15-5 ([8]; clinical isolate MSSE 15-5): 1 µg/mL | Anti-bacterial activity (MIC), strain MSSE 15-6 ([8]; clinical isolate MSSE 15-6): 0.25 µg/mL | Anti-bacterial activity (MIC), strain MSSA 15-3 ([9]; clinical isolate MSSA 15-3): 2 µg/mL | Anti-bacterial activity (MIC), strain MSSA 15-4 ([9]; clinical isolate MSSA 15-4): 0.5 µg/mL | Anti-bacterial activity (MIC), strain MSSA 15-5 ([9]; clinical isolate MSSA 15-5): 0.25 µg/mL | Anti-bacterial activity (MIC), strain MSSA 15-6 ([9]; clinical isolate MSSA 15-6): 16 µg/mL | inhibition at 30 µM ([10]; Homo sapiens, A549, 72 h): > 50% | Inhibition of proliferation, Lung cancer A549 ([10]; 72 hours, 30 µM): 54% | inhibition at 30 µM ([11]; Homo sapiens, Bel-7402, 72 h): > 50% | Inhibition of proliferation, Liver cancer BEL-7402 ([11]; 72 hours, 30 µM): 62% | inhibition at 30 µM [12]: 50% | inhibition at 30 µM ([13]; Homo sapiens, HCT-116, 72 h, read-out: HCT116 inhibition rate/%): > 50% | HCT116 inhibition rate/% ([13]; 30 µM): 64%
